These results are taken from patent publication US10189880B2, “T cell receptors directed against Bob1 and uses thereof” (LEIDEN UNIVERSITY MEDICAL CENTER, priority 2014, dated 2019).

Several values for one entry are separate records, joined by “and”; a condition that tells them apart may be missing. Identical values can stand only once. Entries after “also recorded” stand apart in the source; their conditions may differ. Like-named read-outs stand apart in the source and are kept apart here.

The nature of data set [1]: AP1903 in vitro effective signaling of cells. It counts as cell-based. As to the method:
The fixed dose of AP1903 for injection used, for example, may be 0.4 mg/kg intravenously infused over 2 hours. The amount of AP1903 needed in vitro for effective signaling of cells is about 10-100 nM (MW: 1412 Da). This equates to 14-140 μg/L or ˜0.014-0.14 mg/kg ([…]). The dosage may vary according to the application, and may, in certain examples, be more in the range of 0.1-10 nM, or in the range of 50-150 nM, 10-200 nM, 75-125 nM, 100-500 nM, 100-600 nM, 100-700 nM, 100-800 nM, or 100-900 nM. Doses up to 1 mg/kg were well-tolerated in the Phase I study of AP1903 described above.

Data set [2] has as its system CD3+ΔCD19+ cells. Description: Phase 1 clinical trial of iCasp9 T cells after haploidentical stem cell transplantation. The class given is in vivo, human. The source says: This example presents results of a phase 1 clinical trial using an alternative suicide gene strategy. Briefly, donor peripheral blood mononuclear cells were co-cultured with recipient irradiated EBV-transformed lymphoblastoid cells (40:1) for 72 hrs, allodepleted with a CD25 immunotoxin and then transduced with a retroviral supernatant carrying the iCasp9 suicide gene and a selection marker (ΔCD19); ΔCD19 allowed enrichment to >90% purity via immunomagnetic selection.
Patients developing Grade I GvHD were treated with 0.4 mg/kg AP1903 as a 2-hour infusion. Protocols for administration of AP1903 to patients developing Grade I GvHD were established as follows. Patients developing GvHD after infusion of allodepleted T cells are biopsied to confirm the diagnosis and receive 0.4 mg/kg of AP1903 as a 2 h infusion. […] Patients developing grades 2-4 GvHD were administered standard systemic immunosuppressive therapy per institutional guidelines, in addition to the AP1903 dimerizer drug.
Three patients received iCasp9+ T cells after haplo-CD34+ stem cell transplantation (SCT), at dose levels between about 1×10^6 to about 3×10^6 cells/kg.

For data set [3] the following is noted: cited from earlier work.

In the case of `CC[C@H](C(=O)N1CCCC[C@H]1C(=O)O[C@H](CCc1ccc(OC)c(OC)c1)c1cccc(OCC(=O)NCCNC(=O)COc2cccc([C@@H](CCc3ccc(OC)c(OC)c3)OC(=O)[C@@H]3CCCCN3C(=O)[C@@H](CC)c3cc(OC)c(OC)c(OC)c3)c2)c1)c1cc(OC)c(OC)c(OC)c1` (relative stereo) [AP1903, 2-Piperidinecarboxylic acid, 1-[(2S)-1-oxo-2-(3,4,5-trimethoxyphenyl)butyl]-, 1,2-ethanediylbis[imino(2-oxo-2,1-ethanediyl)oxy-3,1-phenylene[(1R)-3-(3,4-dimethoxyphenyl)propylidene]]ester, [2S-[1(R*),2R*[S[S*[1(R*),2R*]]]]]-(9Cl)], in data set [1], the “amount needed in vitro for effective signaling of cells” value lay in the range of 10 to 100 nM. Besides, the “amount needed for effective signaling, converted” value in data set [1] (MW: 1412 Da) was 14 to 140 µg/L. The “time to resolution of skin and liver aGvHD” value in data set [2] (after AP1903 administration) is not above 24 h. Further, the “ablation of CD3+ΔCD19+ cells” value in data set [2] (within 30 minutes of infusion, patients with grade I/II aGvHD, 0.4 mg/kg) is recorded as more than 90%. The “further reduction of CD3+ΔCD19+ cells” value in data set [2] (within 24 hours) was “further log reduction”. Besides, in data set [3] (1.0 mg/kg), the “duration of the adverse event” value was 32 min and the “onset of the adverse event after start of infusion” value is 3 min. Moreover, the “relation of plasma levels to dose” value in data set [3] (0.01-1.0 mg/kg) is “directly proportional to dose”. Also, in data set [3] (1 volunteer at the 1.0 mg/kg dosage), the “adverse event considered possibly related to AP1903” value is “vasodilatation”. Further, the “plasma level as % of maximal concentration” value in data set [3] (2 hours post-dose) was approximately 7%. Besides, the “plasma level as % of maximal concentration” value in data set [3] (10 hours post-dose) is listed as approximately 1%. In data set [3] (Phase 1 study in volunteers), the serious adverse events result was “No serious adverse events”. Besides, in data set [3] (all dose levels, 0.01 to 1.0 mg/kg), the safety and tolerability result is listed as “well-tolerated; also recorded: No significant adverse effects”. The “incidence of adverse events” value in data set [3] (following each treatment) was “very low”. Moreover, in data set [3] (human, in vivo), the “severity of adverse events” value is on record as “mild”. In addition, in data set [3] (single IV infusion over 2 hours, 0.01-1.0 mg/kg dose range), the “mean Cmax / plasma concentrations” value is 10 to 1275 ng/mL and 10 ng/mL.
